Here are results for eleven molecules from PubChem BioAssay (NCI).

Each structure is given as a SMILES string.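 Compound exposure: 48 hours, 5 concentrations, 96-well plates. Here, GI50 denotes the concentration required for 50% inhibition of growth. TGI denotes the concentration required for complete inhibition of growth.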

Test systems include HCC-2998 colon; OVCAR-3 ovarian; SK-MEL-2 melanoma; K-562 leukemia; T-47D breast; SF-295 CNS; SK-OV-3 ovarian; SK-MEL-28 melanoma; SF-539 CNS; OVCAR-4 ovarian.
Holding throughout (assay): NCI tumour cell line growth inhibition, 48 h

Turning to `CC(C)OC(=O)NNc1cc(Cl)ccc1Cl`, the TGI in the test on HCC-2998 colon, in the test with OVCAR-3 ovarian, with SK-MEL-2 melanoma, in the test with K-562 leukemia, in the test on T-47D breast and in the test with SF-295 CNS was greater than 100 µM throughout. Further, the TGI in the test on SK-OV-3 ovarian, in the test on SK-MEL-28 melanoma and in the test on SF-539 CNS was greater than 100 µM throughout.
For the molecule `CN(CCCNC(=O)Cc1ccc2ccc3cccc4ccc1c2c34)CCCNc1cc(-c2ccc3ccccc3c2)nc2ccccc12`, the GI50 in the test on HCC-2998 colon is 1.48 µM; in the test with OVCAR-3 ovarian, 1.76 µM; in the test on SK-MEL-2 melanoma, 1.82 µM; in the test on OVCAR-4 ovarian, 1.46 µM; with T-47D breast it was 2.04 µM; with SK-OV-3 ovarian it was 1.64 µM. For the same molecule, the results for the GI50 with SK-MEL-28 melanoma and with SF-539 CNS were 1.91 µM and 1.54 µM, respectively. Also, the TGI in the test on HCC-2998 colon was found to be 2.98 µM; in the test on OVCAR-3 ovarian, 3.29 µM; in the test on SK-MEL-2 melanoma, 3.55 µM; in the test with OVCAR-4 ovarian, 2.78 µM; in the test with T-47D breast, 4.19 µM; with SK-OV-3 ovarian it was 3.06 µM. The TGI in the test with SK-MEL-28 melanoma came out at 3.32 µM; in the test on SF-539 CNS, 2.98 µM.
`COc1cc2c(cc1O)C1Cc3ccc(OC)c(O)c3C(C2)N1C` (centres undefined): the TGI in the test on HCC-2998 colon, in the test with OVCAR-3 ovarian, in the test on SK-MEL-2 melanoma, with OVCAR-4 ovarian, in the test with T-47D breast and with SF-295 CNS was greater than 100 µM each time. Further, the TGI in the test on SK-OV-3 ovarian, in the test with SK-MEL-28 melanoma and in the test on SF-539 CNS was greater than 100 µM in each case.
With `COc1ccc2ncn(-c3cc(O[C@H](C)c4ccccc4Cl)c(C(N)=O)s3)c2c1`, the GI50 with HCC-2998 colon was 0.0348 µM; in the test on OVCAR-3 ovarian, 0.00863 µM; in the test on K-562 leukemia, 0.0145 µM; with OVCAR-4 ovarian it was 0.869 µM; in the test with T-47D breast, 1.07 µM; with SF-295 CNS, 0.0189 µM. The GI50 is 0.0246 µM with SK-OV-3 ovarian, 0.105 µM in the test on SK-MEL-28 melanoma and 0.0374 µM in the test on SF-539 CNS. Also, the TGI is 5.51 µM with HCC-2998 colon; 1.07 µM with OVCAR-3 ovarian; greater than 25 µM with K-562 leukemia; greater than 25 µM with OVCAR-4 ovarian; 8.3 µM in the test on T-47D breast; 7.05 µM with SF-295 CNS. The values for the TGI with SK-OV-3 ovarian, in the test on SK-MEL-28 melanoma and with SF-539 CNS were greater than 25 µM, greater than 25 µM and 5.54 µM, respectively.
On to `CC(C)N=c1cc2n(-c3ccc(Cl)cc3)c3ccccc3nc-2cc1Nc1ccc(Cl)cc1`, for which the GI50 with OVCAR-3 ovarian is 1.21 µM; in the test with K-562 leukemia, 2.24 µM; with OVCAR-4 ovarian, 1.29 µM; in the test on T-47D breast, 2.37 µM; with SF-295 CNS it was 1.36 µM; in the test on SK-OV-3 ovarian it was 2.15 µM. The GI50 with SK-MEL-28 melanoma and in the test on SF-539 CNS was greater than 50 µM each time. In addition, the TGI in the test with OVCAR-3 ovarian was 2.76 µM; with K-562 leukemia, greater than 100 µM; in the test with OVCAR-4 ovarian it was greater than 100 µM; in the test on T-47D breast, greater than 50 µM; in the test on SF-295 CNS, greater than 50 µM; in the test on SK-OV-3 ovarian, greater than 50 µM. The TGI with SK-MEL-28 melanoma and with SF-539 CNS was greater than 50 µM throughout.
Consider `CCCCOC(=O)NC(=O)c1cn(CCCOC(=O)NCCCCCCNC(=O)OCCCn2cc(C(=O)NC(=O)OCCCC)c(=O)[nH]c2=O)c(=O)[nH]c1=O`, for which the TGI with HCC-2998 colon, with OVCAR-3 ovarian, in the test on SK-MEL-2 melanoma, with K-562 leukemia, in the test with OVCAR-4 ovarian and with SF-295 CNS was greater than 100 µM in each case. Further, the TGI in the test with SK-OV-3 ovarian, in the test with SK-MEL-28 melanoma and with SF-539 CNS was greater than 100 µM in each case.
As for `COC(=O)/C(C=O)=C/Sc1ccccc1`, the TGI in the test on HCC-2998 colon was greater than 100 µM; with OVCAR-3 ovarian, 65.8 µM; with SK-MEL-2 melanoma it was 91.8 µM; in the test with K-562 leukemia it was greater than 100 µM; with OVCAR-4 ovarian it was greater than 100 µM; with SF-295 CNS, greater than 100 µM. In addition, the TGI in the test on SK-OV-3 ovarian is 88.5 µM; with SK-MEL-28 melanoma, 59.2 µM; in the test with SF-539 CNS, 33.2 µM.
On to `COc1cc(C2=C(c3cn(C)c4ccccc34)COC2=O)cc(OC)c1OC`, for which the GI50 with HCC-2998 colon is 0.429 µM; in the test with OVCAR-3 ovarian it was 0.0364 µM; in the test with SK-MEL-2 melanoma, 0.0562 µM; in the test with K-562 leukemia, 0.037 µM; in the test with OVCAR-4 ovarian, 1.27 µM; in the test on T-47D breast, 0.0604 µM. In addition, the GI50 in the test with SK-OV-3 ovarian was 0.269 µM; in the test on SK-MEL-28 melanoma, 0.754 µM; in the test with SF-539 CNS, 0.106 µM. In addition, the TGI in the test on HCC-2998 colon was 5.2 µM; in the test on OVCAR-3 ovarian, 0.437 µM; in the test with SK-MEL-2 melanoma it was 18.5 µM; with K-562 leukemia it was greater than 100 µM; in the test on OVCAR-4 ovarian, greater than 52.6 µM; in the test on T-47D breast it was 8.65 µM. The TGI is 29.8 µM in the test with SK-MEL-28 melanoma and 0.932 µM with SF-539 CNS.
As for `Cc1ccc(S(=O)(=O)NCCNc2nccc(-c3c(-c4ccc(F)cc4)nc4sccn34)n2)cc1`, the GI50 in the test with HCC-2998 colon was greater than 100 µM; in the test with SK-MEL-2 melanoma it was 7.55 µM; in the test on OVCAR-4 ovarian it was 4.98 µM; in the test on T-47D breast it was 3.85 µM; in the test on SF-295 CNS, 12.6 µM; in the test with SK-OV-3 ovarian it was 12.4 µM. Further, the GI50 with SF-539 CNS is 12.3 µM. Besides, the TGI in the test on HCC-2998 colon is greater than 100 µM; with SK-MEL-2 melanoma it was 38.2 µM; in the test on OVCAR-4 ovarian, 46.7 µM; in the test on T-47D breast, greater than 100 µM; with SF-295 CNS it was 77.1 µM; in the test with SK-OV-3 ovarian, 40.3 µM. In the test on SF-539 CNS, the TGI was determined as 31 µM.
`O=C(Nc1ccc(CO)cc1)c1coc2ccccc2c1=O`: the GI50 in the test on HCC-2998 colon was greater than 100 µM; with OVCAR-3 ovarian, greater than 100 µM; with K-562 leukemia, greater than 100 µM; with OVCAR-4 ovarian it was greater than 100 µM; in the test on T-47D breast it was greater than 100 µM; in the test on SF-295 CNS, 65.6 µM. The GI50 in the test on SK-OV-3 ovarian, in the test on SK-MEL-28 melanoma and with SF-539 CNS was greater than 100 µM in each case. For the same molecule, the TGI in the test on HCC-2998 colon, in the test with OVCAR-3 ovarian, with K-562 leukemia, in the test on OVCAR-4 ovarian, in the test on T-47D breast and in the test on SF-295 CNS was greater than 100 µM throughout. In addition, the TGI in the test with SK-OV-3 ovarian, with SK-MEL-28 melanoma and in the test with SF-539 CNS was greater than 100 µM in each case.
`COc1cc2ccc3c4cc(OC)c(OC(C)C)cc4cnc3c2cc1OC`: the TGI in the test on HCC-2998 colon, in the test on OVCAR-3 ovarian, with SK-MEL-2 melanoma, in the test on K-562 leukemia, with OVCAR-4 ovarian and in the test with SF-295 CNS was greater than 100 µM each time. The TGI in the test on SK-OV-3 ovarian, with SK-MEL-28 melanoma and in the test on SF-539 CNS was greater than 100 µM in each case.
